# Assay results from a melting point compilation (Tetko et al.; mined from patent text by program, amines drawn as free bases though some values may be those of a salt).
row,melting point [°C],SMILES
1,186 to 190,Nc1nc(NCCc2ccc(Oc3nc(N)n4nc(-c5ccco5)nc4n3)cc2)nc2nc(-c3ccco3)nn12
2,120 to 123,CO/N=C1\CCCC[C@@H]1NC(=O)c1cnc(O[C@@H](C)C(F)(F)F)c(-c2ccc(Cl)cc2)n1
3,133 to 135,Cn1c(CO)nc2ccc(OCc3ccccc3)nc21
4,175 to 178,CC(=O)c1cc(N2CCCC2)ccc1NC(=O)c1ccc(OCc2ccccc2)cc1
5,230 to 231,COCc1nc2c(OC)ccc(C(=O)Nc3c(Cl)cncc3Cl)c2[nH]1
6,204 to 208,O=C(c1ccccc1)c1cccnc1-c1nc(NC2CCCCC2)c2ccccc2n1
7,160 to 162,CCCCSC1(SCCCC)CCC2C3CCC4=CC(=O)C=CC4(C)C3(F)C(O)CC21C (stereo not given)
8,> 320,Nc1nc2c(sc(=O)n2Cc2ccc(Cl)cc2)c(=O)[nH]1
9,90 to 92,CC(C)(CC(=O)O)SC(CCCc1ccccc1)c1ccc(OCc2ccc3ccccc3n2)cc1 (stereo not given)
10,125 to 126,COc1cc2ncnc(Nc3ccc(OCc4ccccn4)c(C)c3)c2cc1OCCN(C)C
11,222,CCOC(=O)C(=CNc1cc([N+](=O)[O-])ccc1O)C(=O)c1cc(F)c(F)c(F)c1F
12,206 to 207,Cc1ccc(-c2csc(/C=C/C(=O)O)c2)cc1
13,213 to 215,O=C(O)c1ccc(NCCC(c2ccc(Cl)cc2)c2ccc(Cl)cc2)cc1
14,126 to 129,COC(=O)CC1Sc2ccc(N)cc2CN(CCc2ccccc2)C1=O (stereo not given)
15,133 to 136,CC(=O)OC1CCC2(C)C(CCC3C4CCC(C(C)=O)C4(C)CC4OC432)C1 (stereo not given)
16,269 to 275,O=C(O)c1csc2c1OC(c1ccccc1)(C1CCCCC1)CC2=O (stereo not given)
17,109 to 110,O=c1oc(-c2c(F)cccc2Cl)nn1-c1ccccc1C(F)(F)F
18,232 to 234,CC(=O)Nc1nc2c(Oc3cc(-c4ccc(C(F)(F)F)cc4NCC4CCCCC4)ncn3)cccc2s1
19,48 to 49,COC(=O)c1ccc2oc(CCC=O)cc2c1
20,126 to 128,COc1ccc(-n2nc(CCC(=O)O)cc2-c2ccc(Cl)cc2)cc1
21,180 to 181,CCOC(=O)C=Cc1ccc(C(C)(C)C)c(NC(=O)CC2c3ccccc3Oc3ccccc32)c1
22,103 to 105,O=C(O)C(=O)c1ccc(OC/C=C/c2ccccc2)cc1
23,296 to 299,COc1nc(C)c(N2CCCn3c2nc2cccc(C(O)C(F)(F)F)c23)c(C)n1 (stereo not given)
24,189 to 190,CC12CCc3ccccc3C1=NNC(=O)C2 (stereo not given)
25,150 to 151,COc1cc(Cl)cn2cc(-c3ccc(Cl)cc3)nc12
26,39 to 45,OCc1sc(Cl)nc1C(F)(F)F

row,melting point [°C],SMILES
1,56 to 58,CS(=O)(=O)Oc1cccnc1
2,128,CC(C)(C)OC(=O)N1CCC2(C=Cc3ccccc32)CC1
3,250,CN(C)c1nc(Nc2cc(C(=O)NC3CCC3)n[nH]2)c2occc2n1
4,222 to 225,Nc1nc(Cl)c2[nH]c(=O)n(CCCCO)c2n1
5,188 to 193,Cc1cc(CN(C(=O)Nc2ccc(C(=O)O)cc2)c2ccc3c(c2)C(C)(C)CCC3(C)C)no1
6,208 to 209,Cc1nc(-n2ccc(OCc3ccccc3)cc2=O)sc1C(=O)NCc1cccnc1
7,158 to 160,CCc1ccc(-n2nc(Cl)cc2-c2ccc(S(C)(=O)=O)cc2)cc1N
8,223 to 224,COc1ccc(Cl)nc1C(N)=O
9,116 to 117,CC(C)(CS(=O)(=O)c1ccc(Oc2ccc(Cl)cn2)cc1)C(=O)NO
10,106,CCC(CC)C(=O)Nc1nc(C)co1
11,161 to 164,COc1nc(N)nc(C(F)(F)F)n1
12,136 to 137,CCOC(=O)C1=C(C)Nc2ccnc(OC(C)C)c2C1c1ccccc1 (stereo not given)
13,129 to 133,COc1cc2c(c3c1OC(C)(C)C3)C(c1cccc(-c3ccc(NC=O)cc3)c1)=NC(C)(C)C2
14,86 to 88,C=C(c1ccc(NC(=O)OC(C)(C)C)c(C)c1)C(F)(F)F
15,136 to 137,COCCN1CN(C)C(=O)N(c2nc3c(s2)C(=O)CC(C)(C)C3)C1
16,283,COc1ccc(-c2[nH]nc3c2C(=O)c2c(NC(=O)NNC(=O)c4ccc(O)cc4)cccc2-3)cc1
17,180,C=CCCC(C)(NC(c1ccccc1)c1ccccc1)P(O)O (stereo not given)
18,160 to 162,CCOC(=O)C(N=Nc1ccc(Br)cc1C(=O)c1ccccn1)NC(=O)CCl (stereo not given)
19,180,Cc1ccccc1-c1cc(=O)c2cc(O)ccc2o1
20,251,CC1(C)c2ccccc2-c2ccc(C3c4ccc(-c5ccc(-c6ccc(C=C(C#N)C(=O)O)s6)s5)c5c4C(CCC5)N3c3ccccc3)cc21 (stereo not given)
21,192 to 195,CCn1ncnc1COc1nc2c(nnn2-c2ccccc2)c2ccccc12
22,128 to 129,Cc1c(NC(=O)c2ccc(-c3ccccc3Cl)cc2)ccc2cc(CN3CCCC3)cnc12
23,> 300,CN(C)Cc1cc2nc(C(=O)O)c(=O)[nH]c2cc1[N+](=O)[O-]
24,129 to 130,COc1ccc2c(C)c(CCN3CCN(c4ccccc4OC)CC3)c(=O)oc2c1
25,95 to 97,CCNC(=O)n1nc(Oc2ccc([N+](=O)[O-])cc2C(F)(F)F)cc1C
26,155 to 157,CCc1c2c(c(CC)c3ccc(OC)cc13)-c1ccc(OC)cc1C2

# Continued, molecule first:
row,SMILES,melting point [°C]
1,CCCCOC(=O)N[C@H]1C(=O)N[C@H]1CO (relative stereo),128 to 131
2,Cc1cc(-c2nc3cccnn3c2-c2ccnc(NC(=O)Nc3ccc(C#N)cc3)c2)ccc1F,204 to 206
3,CN(C)c1ccc(-c2cnn(-c3cccc(C(=O)O)c3)c2)cc1,224 to 225
4,CC(C)(C)NC1=NS(=O)(=O)c2ccc(Cl)cc2N1,291 to 294
5,O=Cc1ccc(OCCNc2nc3ccccc3o2)cc1,103 to 106
6,Clc1ccc(-c2nnc(NCCN3CCCCC3)c(Cc3ccccc3)n2)cc1,196
7,COC(=O)C=Cc1ccc(C=O)cc1,82 to 84
8,Cc1c2cccccc-2c(-c2ccccc2)c1-c1ccc(S(C)(=O)=O)cc1,165 to 167
9,CN(C)C=Nc1ncc2cc(-c3c(Cl)cccc3Cl)c(N=CN(C)C)nc2n1,269 to 272
10,O=C(Nc1ccccc1)c1cc(Oc2ccc3c(c2)CCN3C(=O)Nc2cccc(C(F)(F)F)c2)ncn1,227 to 229
11,CCOC1CC(n2cc(C(F)(F)F)c(=O)[nH]c2=O)OC1CO (stereo not given),183 to 184
12,COC1(C)CCc2cc(O)c(C(C)(C)C)cc2O1 (stereo not given),115 to 117
13,Cc1ccc(N(C)S(=O)(=O)c2cccs2)c2[nH]c(-c3nccs3)cc12,159 to 160
14,O=C(O)c1ccccc1Oc1ccccc1C1CCCCC1,109 to 123
15,CCCCCCCCCCOc1ccc(C(=O)Nc2cc(CCC(=O)CC3CCCCCC3)ccc2C(C)(C)C)cc1,98 to 99
16,CC1(C)C2CC[C@@]1(N1CCCCC1)C(=O)C2,78 to 79
17,O=C1C=C(O)CC(c2ccc3c(c2)CCC3)C1 (stereo not given),198
18,CSc1ccc(C(=O)c2c(C)sc3c2CCC3C(=O)O)cc1 (stereo not given),131 to 133
19,Nc1cccc2c1C(=O)N1CCC[C@H]1c1c(C(=O)OC3CCCCC3)ncn1-2,211 to 212
20,N#CC=Cc1ccc(CBr)cc1,105 to 107
21,CC(=O)NC[C@H]1CN(c2ccc(N3CCC4(CC3)CO4)c(F)c2)C(=O)O1,152 to 154
22,O=C1C(=Cc2cccnc2)N2CCC1CC2,113
23,O=C(O)c1cc2cc(Cl)ccc2nc1NC(Cc1cccc(F)c1)C(=O)O (stereo not given),177 to 181
24,Cc1cc(Cl)cc(C(=O)NC2(C)CS(=O)(=O)C2)c1NC(=O)c1cc(C(F)(F)F)nn1-c1ncccc1Cl,168 to 171

row,SMILES,melting point [°C]
1,CCOC(=O)C(=O)C1C(=O)c2cccc3c2C1CCC3 (stereo not given),92 to 94
2,CCCC1(C(=O)NCCN2CCC(N3Cc4ccccc4C3=O)CC2)c2ccccc2-c2ccccc21,219 to 221
3,CC1(C)CCC(C)(C)c2cc(C(N)C(=O)Nc3ccc(C(=O)OCc4ccccc4)cc3)ccc21 (stereo not given),196 to 197
4,Cc1cc(-c2ccccc2)n2nc(N)nc2n1,246 to 250
5,CC(=O)OCc1nc([N+](=O)[O-])c(Br)n1C,92 to 97
6,O=C(NCCO)c1ccc(C(=O)N2CCN(CCO)CC2)nc1,126 to 128
7,COC(=O)c1c(C)nc(C)c(C(=O)O)c1-c1ccccc1[N+](=O)[O-],232 to 233
8,C=CC1CC2=CC(=O)CCC2C2CCC3(C)C(OC(C)=O)CCC3C12 (stereo not given),130 to 134
9,O=C(c1ccc(F)cc1)C1CCN(CCN2CNc3ccccc3C2=O)CC1,203
10,CNC(=O)c1cc2c(Oc3ccc(C(=O)NCCN4CCOCC4)cc3)cncc2s1,226 to 228
11,O=C1CC(Cc2cccc(Cl)c2)CN1 (stereo not given),117 to 119
12,COc1ccc(-c2[nH]c(-c3cccc4ccccc34)nc2C(=O)Nc2nccs2)cc1,198 to 200
13,COC(=O)CNC(=O)NCCCCC1CCSS1 (stereo not given),62 to 64
14,CCS(=O)(=O)c1nnc(NN)s1,166 to 167
15,Brc1ccnc2cc3c(cc12)OCO3,147 to 149
16,O=C(O)CCC(=NOCc1ccc(OCc2cc(-c3ccccc3)on2)cc1)c1ccccc1,100 to 101
17,Cc1cccc(C(=O)N(C)C)c1N,95 to 96
18,Cc1ccc(S(=O)(=O)NC2CCCCC2NC(=O)OC(C)(C)C)cc1 (stereo not given),137 to 139
19,N#Cc1cc(-c2ccc3c(c2)C2(CCCC2)C(=O)N3)ccc1F,264 to 266
20,CN(C)Cc1cc([N+](=O)[O-])cc2c(Nc3cccc(Br)c3)c(C#N)cnc12,223 to 226
21,CCOCc1nc2c(N)nc(C)c(C)c2n1CCC1CCN(C(=O)N2CCOCC2)CC1,158 to 160
22,CCOCc1c(-c2ccc(OC(F)F)c(OC3CC3)c2)[nH]c2cn[nH]c(=O)c12,141 to 143
23,CN(CCN1CCN(c2cccc(C(F)(F)F)n2)CC1)C(=O)c1ccc(F)cc1,144
24,Nc1ccccc1C(=O)CCC(=O)O,103 to 107
